Data on six molecules can be found in ChEMBL document CHEMBL1201862, “PubChem BioAssay data set” (2004).

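Compound exposure: 48 hours, 5 concentrations, 96-well plates. At the GI50, growth is halved.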 Activity calls are given as the source filed them. No stated cut-off is given here; in the data, active = GI50 up to about 1.1 µM and inactive = higher. A value given as a limit tells only on which side of the number the result lay.

Assay in all cases: inhibition of tumour cell growth, NCI panel, 48 h
Assay [1] deals with 786-0.
Assay [2] has as its system A498.
Assay [3] deals with A549.
The subject of assay [4] is HCC 2998.
Assay [5] concerns HCT-15.
The subject of assay [6] is HL-60.
Assay [7] concerns HT-29.
Assay [8] has as its system KM12.
The test system of assay [9] is M14.
Assay [10] has as its system MDA-MB-435.
Assay [11] concerns NCI-H226.
The test system of assay [12] is NCI-H460.
The subject of assay [13] is NCI-H522.
In assay [14] the test system is OVCAR-4.
In assay [15] the test system is OVCAR-8.
Assay [16] deals with RXF 393.
Assay [17] relates to SF-539.
In assay [18] the test system is SN12C.
Assay [19] has as its system SNB-19.
Assay [20] relates to UO-31.

Turning to `O=C(N/N=C\C=C\c1ccc([N+](=O)[O-])o1)C(=O)N/N=C\C=C\c1ccc([N+](=O)[O-])o1`, the GI50 was > 100 µM (inactive) in [1]; > 100 µM (inactive) in assay [2]; > 100 µM (inactive) in assay [3]; > 100 µM (inactive) in assay [4]; 81.7 µM in assay [5]; 20 µM (inactive) in assay [6]. In addition, the GI50 is > 100 µM (inactive) in assay [7]; > 100 µM (inactive) in assay [8]; 32.1 µM (inactive) in assay [9]; > 100 µM (inactive) in assay [10]; > 100 µM (inactive) in [11]; > 100 µM (inactive) in [12]. Further, the GI50 is > 100 µM (inactive) in [13]; 34.9 µM (inactive) in [14]; 23.2 µM (inactive) in [15]; > 100 µM (inactive) in assay [16]; 3.19 µM (inactive) in [17]; > 100 µM (inactive) in assay [18]. Moreover, the GI50 in assay [19] and in assay [20] was > 100 µM (inactive) in each case.
For `O=S(=O)(O)c1ccc(/N=N/c2ccccc2)cc1`, the GI50 in assay [1] was > 100 µM (inactive); in [2] it was > 100 µM (inactive); in assay [3] it was > 100 µM (inactive); in assay [4], > 100 µM (inactive); in [5], over 100 µM; in assay [6], > 100 µM (inactive). The GI50 in assay [7], in [8], in [9], in assay [10], in [11] and in assay [12] was > 100 µM (inactive) throughout. The GI50 in assay [13], in assay [14], in [15], in assay [16], in assay [17] and in assay [18] was > 100 µM (inactive) throughout. For the same molecule, the GI50 in [19] and in [20] was > 100 µM (inactive) each time.
In the case of `Cc1ccc(C(O)c2cnc(C)n2Cc2ccccc2)cc1` (stereo not given), the GI50 in assay [1] is > 100 µM (inactive); in assay [2], > 100 µM (inactive); in assay [3] it was > 100 µM (inactive); in assay [4], > 100 µM (inactive); in assay [5] it was over 100 µM; in assay [6] it was 6.43 µM (inactive). Also, the GI50 in [7], in assay [8], in assay [9], in assay [10], in assay [11] and in [12] was > 100 µM (inactive) in each case. Moreover, the GI50 in assay [13], in assay [14], in assay [15], in [16], in assay [17] and in assay [18] was > 100 µM (inactive) each time. Also, the GI50 in assay [19] and in assay [20] was > 100 µM (inactive) each time.
As to `C=C(Br)COc1ccc2c(C)cc(=O)oc2c1`, the GI50 is > 100 µM (inactive) in assay [1]; 64.7 µM (inactive) in assay [2]; 61.5 µM (inactive) in assay [3]; 95.3 µM (inactive) in assay [4]; 57.7 µM in assay [5]; 40.2 µM (inactive) in [6]. The GI50 is 66.4 µM (inactive) in assay [7]; 0.319 µM (active) in assay [8]; > 100 µM (inactive) in [9]; 56.1 µM (inactive) in assay [10]; > 100 µM (inactive) in assay [11]; 88.5 µM (inactive) in assay [12]. The GI50 in assay [13] was 42.6 µM (inactive); in assay [14] it was 50.7 µM (inactive); in [15], 47.9 µM (inactive); in assay [16], 0.0721 µM (active); in assay [17] it was 67 µM (inactive); in assay [18], > 100 µM (inactive). The values for the GI50 in assay [19] and in assay [20] were > 100 µM (inactive) and 64.1 µM (inactive), respectively.
Consider `Oc1cc(F)cc2cccnc12`, for which the GI50 was 7.29 µM (inactive) in [1]; 6.58 µM (inactive) in assay [2]; 1.02 µM (active) in [3]; 26.1 µM (inactive) in assay [4]; 0.25 µM in [5]; 0.0887 µM (active) in assay [6]. Moreover, the GI50 in [7] was 4.47 µM (inactive); in [8], 1.3 µM (inactive); in assay [9], 1.02 µM (active); in [10] it was 2.38 µM (inactive); in assay [11], 3.54 µM (inactive); in assay [12], 1.24 µM (inactive). Besides, the GI50 is 0.183 µM (active) in assay [13]; 0.435 µM (active) in assay [14]; 0.324 µM (active) in [15]; 3.75 µM (inactive) in assay [16]; 1.34 µM (inactive) in assay [17]; 1.04 µM (active) in assay [18]. For the same molecule, the results for the GI50 in assay [19] and in assay [20] were 5.31 µM (inactive) and 0.652 µM (active), respectively.
For the molecule `NCCSCC(N)C(=O)O` (stereo not given), the GI50 in assay [1] was 83.4 µM (inactive); in assay [2] it was > 497 µM (inactive); in assay [3] it was 47.6 µM (inactive); in assay [4] it was > 497 µM (inactive); in [5] it was over 87.5 µM; in assay [6], > 497 µM (inactive). Also, the GI50 in assay [7] is 39.5 µM (inactive); in assay [8] it was 38 µM (inactive); in [9], > 497 µM (inactive); in assay [10] it was 51.2 µM (inactive); in assay [11], > 497 µM (inactive); in assay [12], 60.1 µM (inactive). The GI50 in [13] is > 63 µM (inactive); in assay [14], > 497 µM (inactive); in assay [15], > 497 µM (inactive); in assay [16] it was > 497 µM (inactive); in [17], > 497 µM (inactive); in assay [18], > 497 µM (inactive). Moreover, the results for the GI50 in assay [19] and in [20] were > 497 µM (inactive) and 85.5 µM (inactive), respectively.
